In ChEMBL document CHEMBL2434831, “Imidazo[4,5-b]pyridine inhibitors of B-Raf kinase” (Bioorg Med Chem Lett, 2013):

Tests used:
[1] = Permeability from apical to basolateral side in human Caco2 cells; type: ADME, cell-based; conditions: Caco-2, read-out: permeability
[2] = molecular target: T1, Serine/threonine-protein kinase B-raf (Homo sapiens, UniProt P15056, V600E); assay: Inhibition of full length B-Raf V600E mutant (unknown origin)
[3] = test system: Serine/threonine-protein kinase B-raf (Homo sapiens), P15056 [V600E]; assay: Ratio of IC50 for B-Raf V600E mutant in human Malme-3M cells to IC50 for full length B-Raf V600E mutant (unknown origin); type: cell-based
[4] = molecular target: T1, Serine/threonine-protein kinase B-raf; assay: Inhibition of B-Raf V600E mutant in human Malme-3M cells assessed as basal ERK phosphorylation; type: cell-based
[5] = Inhibition of cytochrome P450 (unknown origin); type: ADME; conditions: human

Chain of Serine/threonine-protein kinase B-raf (Homo sapiens), P15056 [V600E] (P15056 whole entry V600E): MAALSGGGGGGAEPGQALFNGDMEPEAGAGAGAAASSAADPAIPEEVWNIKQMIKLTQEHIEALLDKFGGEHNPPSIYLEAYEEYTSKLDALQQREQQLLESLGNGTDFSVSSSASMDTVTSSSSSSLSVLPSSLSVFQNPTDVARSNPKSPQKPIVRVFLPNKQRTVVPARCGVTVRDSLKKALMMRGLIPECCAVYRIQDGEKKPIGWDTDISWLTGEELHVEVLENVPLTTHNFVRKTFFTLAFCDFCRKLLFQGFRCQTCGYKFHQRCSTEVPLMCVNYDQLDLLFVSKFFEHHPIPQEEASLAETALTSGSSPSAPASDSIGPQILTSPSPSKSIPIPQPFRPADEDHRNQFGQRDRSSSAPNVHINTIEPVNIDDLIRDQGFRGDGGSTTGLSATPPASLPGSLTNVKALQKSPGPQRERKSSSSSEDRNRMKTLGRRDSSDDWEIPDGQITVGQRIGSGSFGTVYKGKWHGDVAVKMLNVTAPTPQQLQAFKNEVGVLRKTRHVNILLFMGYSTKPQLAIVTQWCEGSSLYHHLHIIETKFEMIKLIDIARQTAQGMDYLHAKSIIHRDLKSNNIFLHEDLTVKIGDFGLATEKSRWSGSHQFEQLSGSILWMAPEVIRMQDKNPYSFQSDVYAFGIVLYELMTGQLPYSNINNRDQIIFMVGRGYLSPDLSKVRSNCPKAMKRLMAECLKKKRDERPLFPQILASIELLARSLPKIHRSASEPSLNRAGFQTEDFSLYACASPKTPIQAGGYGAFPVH
T1 sequence (P15056 2-766 V600E limits assumed): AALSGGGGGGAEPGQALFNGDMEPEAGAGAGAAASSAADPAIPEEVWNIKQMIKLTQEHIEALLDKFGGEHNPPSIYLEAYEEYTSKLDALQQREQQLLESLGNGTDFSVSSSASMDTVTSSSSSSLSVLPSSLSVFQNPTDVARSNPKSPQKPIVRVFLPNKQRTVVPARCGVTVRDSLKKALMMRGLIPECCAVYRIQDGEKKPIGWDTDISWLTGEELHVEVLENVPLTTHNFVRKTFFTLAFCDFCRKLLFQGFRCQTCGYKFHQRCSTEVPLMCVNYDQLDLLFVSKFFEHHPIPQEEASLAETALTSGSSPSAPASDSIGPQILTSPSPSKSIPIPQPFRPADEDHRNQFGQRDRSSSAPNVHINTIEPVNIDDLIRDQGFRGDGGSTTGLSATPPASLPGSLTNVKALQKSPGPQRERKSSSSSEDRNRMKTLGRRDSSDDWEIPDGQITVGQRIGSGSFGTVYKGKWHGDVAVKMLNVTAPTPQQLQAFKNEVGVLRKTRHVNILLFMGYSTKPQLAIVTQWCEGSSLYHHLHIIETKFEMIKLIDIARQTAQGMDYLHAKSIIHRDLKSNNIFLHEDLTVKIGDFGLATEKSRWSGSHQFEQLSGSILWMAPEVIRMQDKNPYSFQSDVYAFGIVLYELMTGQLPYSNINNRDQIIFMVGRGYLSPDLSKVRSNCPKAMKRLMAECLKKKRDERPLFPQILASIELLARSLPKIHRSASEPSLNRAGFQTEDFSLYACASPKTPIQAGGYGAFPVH

Row | Compound | Papp A→B [1] | IC50 [2] | Ratio IC50 [3] | IC50 [4] | inhibition (INH) [5]
1 | CCCS(=O)(=O)Nc1ccc(F)c(C(=O)Nc2cnc3[nH]ncc3c2)c1F | 1.3 ×10⁻⁶ cm/s | 18 nM | – | – | –
2 | CCCS(=O)(=O)Nc1ccc(F)c(C(=O)Nc2cnc3[nH]c(-c4cccc(C(F)(F)F)c4)nc3c2)c1F | – | 1 nM | 112 | 113 nM | –
3 | CCCS(=O)(=O)Nc1ccc(F)c(C(=O)Nc2cnc3cc(-c4ccccc4)nn3c2)c1F | 15.6 ×10⁻⁶ cm/s | – | – | – | –
4 | CCCS(=O)(=O)Nc1ccc(F)c(C(=O)Nc2cnc3[nH]c(-c4ccc(F)c(F)c4)nc3c2)c1F | – | 3.4 nM | 57 | 194 nM | –
5 | CCCS(=O)(=O)Nc1ccc(F)c(C(=O)Nc2cnc3[nH]c(-c4ccc(OC)cc4)nc3c2)c1F | – | 1.1 nM | 125 | 137 nM | –
6 | CCCS(=O)(=O)Nc1ccc(F)c(C(=O)Nc2cnc3[nH]c(-c4ccc(C(F)(F)F)cc4)nc3c2)c1F | 1 ×10⁻⁶ cm/s | 1.4 nM | 62 | 89 nM | –
7 | CCCS(=O)(=O)Nc1ccc(F)c(C(=O)Nc2cnc3[nH]c(-c4cccc(OC)c4)nc3c2)c1F | – | 1.2 nM | 219 | 271 nM | –
8 | CCCS(=O)(=O)Nc1ccc(F)c(C(=O)Nc2cnc3ccnn3c2)c1F | 11.4 ×10⁻⁶ cm/s | – | – | – | –
9 | CCCS(=O)(=O)Nc1ccc(F)c(C(=O)Nc2cnc3[nH]c(C(C)(C)C)nc3c2)c1F | – | 69 nM | 23 | 1560 nM | –
10 | CCCS(=O)(=O)Nc1ccc(F)c(C(=O)Nc2cnc3[nH]c(-c4ccccc4Cl)nc3c2)c1F | – | 27 nM | 21 | 557 nM | –
11 | CCCS(=O)(=O)Nc1ccc(F)c(C(=O)Nc2cnc3[nH]c(-c4cccc(Cl)c4)nc3c2)c1F | – | 1.1 nM | 62 | 68 nM | –
12 | CCCS(=O)(=O)Nc1ccc(F)c(C(=O)Nc2cnc3[nH]c(-c4ccc(C#N)cc4)nc3c2)c1F | – | 2.7 nM | 88 | 239 nM | –
13 | CCCS(=O)(=O)Nc1ccc(F)c(C(=O)Nc2cnc3[nH]c(-c4cccc(Br)c4)nc3c2)c1F | – | 0.76 nM | 226 | 172 nM | –
14 | CCCS(=O)(=O)Nc1ccc(F)c(C(=O)Nc2cnc3[nH]c(-c4ccc(Br)cc4)nc3c2)c1F | 1.3 ×10⁻⁶ cm/s | 2.2 nM | 28 | 61 nM | –
15 | CCCS(=O)(=O)Nc1ccc(F)c(C(=O)Nc2cnc3[nH]c(-c4ccccc4)cc3c2)c1F | 5.6 ×10⁻⁶ cm/s | 1 nM | 32 | 32 nM | –
16 | CCCS(=O)(=O)Nc1ccc(F)c(C(=O)Nc2cnc3[nH]c(-c4ccc(Cl)cc4)cc3c2)c1F | – | 2.4 nM | 8.4 | 20 nM | –
17 | CCCS(=O)(=O)Nc1ccc(F)c(C(=O)Nc2cnc3[nH]c(C4CCNCC4)nc3c2)c1F | – | 107 nM | > 93 | > 10000 nM | –
18 | CCCS(=O)(=O)Nc1ccc(F)c(C(=O)Nc2cnc3[nH]c(-c4ccccc4Br)nc3c2)c1F | – | 27 nM | 35 | 948 nM | –
19 | CCCS(=O)(=O)Nc1ccc(F)c(C(=O)Nc2cnc3[nH]c(-c4ccc(Cl)cc4)nc3c2)c1F | – | 2.2 nM | 71 | 157 nM | –
20 | CCCS(=O)(=O)Nc1ccc(F)c(C(=O)Nc2cnc3[nH]c(C)nc3c2)c1F | – | 40 nM | 43 | 1710 nM | –

Row | Compound | Papp A→B [1] | IC50 [2] | Ratio IC50 [3] | IC50 [4] | inhibition (INH) [5]
21 | CCCS(=O)(=O)Nc1ccc(F)c(C(=O)Nc2cnc3[nH]c(CC)nc3c2)c1F | – | 59 nM | 30 | 1770 nM | –
22 | CCCS(=O)(=O)Nc1ccc(F)c(C(=O)Nc2cnc3[nH]c(C4CCC4)nc3c2)c1F | – | 31 nM | 107 | 3330 nM | –
23 | CCCS(=O)(=O)Nc1ccc(F)c(C(=O)Nc2cnc3[nH]c(-c4ccccc4F)nc3c2)c1F | – | 8 nM | 21 | 167 nM | –
24 | CCCS(=O)(=O)Nc1ccc(F)c(C(=O)Nc2cnc3[nH]c(-c4ccncc4)nc3c2)c1F | – | 3.2 nM | 596 | 1910 nM | –
25 | CCCS(=O)(=O)Nc1ccc(F)c(C(=O)Nc2cnc3[nH]c(C4CCCNC4)nc3c2)c1F (stereo not drawn) | – | 167 nM | > 60 | > 10000 nM | –
26 | CCCS(=O)(=O)Nc1ccc(F)c(C(=O)Nc2cnc3[nH]cnc3c2)c1F | 0.6 ×10⁻⁶ cm/s | – | 39 | – | –
27 | CCCS(=O)(=O)Nc1ccc(F)c(C(=O)Nc2cnc3[nH]c(C(C)C)nc3c2)c1F | – | 60 nM | 29 | 1730 nM | –
28 | CCCS(=O)(=O)Nc1ccc(F)c(C(=O)Nc2cnc3[nH]c(-c4ccc(F)cc4)cc3c2)c1F | – | 1.1 nM | 18 | 20 nM | –
29 | CCCS(=O)(=O)Nc1ccc(F)c(C(=O)Nc2cnc3[nH]c(-c4ccc(S(C)(=O)=O)cc4)nc3c2)c1F | – | 1.4 nM | 527 | 728 nM | –
30 | CCCS(=O)(=O)Nc1ccc(F)c(C(=O)Nc2cnc3cc(-c4ccc(Cl)cc4)nn3c2)c1F | – | 8.2 nM | 11 | 90 nM | –
31 | CCCS(=O)(=O)Nc1ccc(F)c(C(=O)Nc2cnc3[nH]c(-c4ccc(Cl)c(Cl)c4)nc3c2)c1F | 2 ×10⁻⁶ cm/s | 1.5 nM | 54 | 81 nM | Not Active
32 | CCCS(=O)(=O)Nc1ccc(F)c(C(=O)Nc2cnc3[nH]c(-c4ccccc4)nc3c2)c1F | – | 1.6 nM | – | 132 nM | –
33 | CCCS(=O)(=O)Nc1ccc(F)c(C(=O)Nc2cnc3[nH]c(-c4ccc(F)cc4)nc3c2)c1F | – | 4.4 nM | 240 | 1050 nM | –
34 | CCCS(=O)(=O)Nc1ccc(F)c(C(=O)Nc2cnc3[nH]ccc3c2)c1F | 7.3 ×10⁻⁶ cm/s | 42 nM | – | – | –
35 | CCCS(=O)(=O)Nc1ccc(F)c(C(=O)Nc2cnc3[nH]c(-c4ccc(OC(F)(F)F)cc4)nc3c2)c1F | – | 2.5 nM | 34 | 86 nM | –
36 | CCCS(=O)(=O)Nc1ccc(F)c(C(=O)Nc2cnc3[nH]c(-c4cccnc4)nc3c2)c1F | – | 3 nM | 375 | 1130 nM | –
37 | CCCS(=O)(=O)Nc1ccc(F)c(C(=O)Nc2cnc3[nH]c(-c4ccc(C)cc4)nc3c2)c1F | 2.6 ×10⁻⁶ cm/s | 1.3 nM | 38 | 49 nM | –
38 | CCCS(=O)(=O)Nc1ccc(F)c(C(=O)Nc2cnc3[nH]c(-c4cccc(F)c4)nc3c2)c1F | – | 3.1 nM | 97 | 298 nM | –
39 | CCCS(=O)(=O)Nc1ccc(F)c(C(=O)Nc2cnc3cc(-c4ccc(F)cc4)nn3c2)c1F | – | – | 4.9 | – | –
